# Data as given in BindingDB's records for PubMed 37122539 (Virginia Tech, 2023).
# Test system: Enterococcus faecalis
# Experiment: Antibacterial activity against Enterococcus faecalis ATCC 29212 incubated for 16 hrs by broth microdilution method
row,SMILES,IC50 [µg/mL]
1,CN(CC[C@H](N)CC(=O)N[C@H]1C=C[C@H](n2ccc(N)nc2=O)O[C@@H]1C(=O)O)C(=N)N,53
2,CN(CC[C@H](N)CC(=O)N[C@H]1C=C[C@H](n2ccc(N)nc2=O)O[C@@H]1C(N)=O)C(=N)N,13
3,COC(=O)[C@H]1O[C@@H](n2ccc(N)nc2=O)C=C[C@@H]1NC(=O)C[C@@H](N)CCN(C)C(=N)N,9.2
4,CN(CC[C@H](N)CC(=O)N[C@H]1C=C[C@H](n2ccc(N)nc2=O)O[C@@H]1C(=O)OCc1ccccc1)C(=N)N,15
5,CN(CC[C@H](N)CC(=O)N[C@H]1C=C[C@H](n2ccc(N)nc2=O)O[C@@H]1C(=O)OCCc1ccccc1)C(=N)N,6.9

# The remaining lines, values ahead:
row,IC50 [µg/mL],SMILES
1,9.9,CCOC(=O)[C@H]1O[C@@H](n2ccc(N)nc2=O)C=C[C@@H]1NC(=O)C[C@@H](N)CCN(C)C(=N)N
2,11,CCCOC(=O)[C@H]1O[C@@H](n2ccc(N)nc2=O)C=C[C@@H]1NC(=O)C[C@@H](N)CCN(C)C(=N)N
3,16,CCCCOC(=O)[C@H]1O[C@@H](n2ccc(N)nc2=O)C=C[C@@H]1NC(=O)C[C@@H](N)CCN(C)C(=N)N
4,11,CCCCCCOC(=O)[C@H]1O[C@@H](n2ccc(N)nc2=O)C=C[C@@H]1NC(=O)C[C@@H](N)CCN(C)C(=N)N
5,12,C#CCCCOC(=O)[C@H]1O[C@@H](n2ccc(N)nc2=O)C=C[C@@H]1NC(=O)C[C@@H](N)CCN(C)C(=N)N
